Data published in US11613552B2, “Pharmaceutical agents, compositions, and methods relating thereto” (Alltech, Inc., priority 2017, dated 2023).

Experiments:
[1] = system: H4IIE cells; assay: Glucose production assay in H4IIE cells; format: cell-based, rat
Procedure: Equal numbers of Human HepG2 or rat H4IIE cells (1-1.5×10^5 cells/well) were seeded on 96 well plates in 10% FBS-containing media for 24 hr. Cells were then washed twice with PBS, and treated with various concentrations of compounds, metformin or insulin in 100 μl of glucose production media (glucose-free, phenol red-free DMEM media supplemented with 20 mM sodium lactate, 2 mM sodium pyruvate and 5 mM HEPES) at 37° C. for 24 hr (H4IIE cells only) or 48 hr (HepG2 cell only). Cells were also incubated with 0.24% DMSO (the maximal volume of DMSO solvent used in the experiments).
After the above treatments, 50 μl of culture media were collected, and subjected to glucose analysis using Molecular Probes Amplex Red glucose assay kit (Cat #A22189) according to the manufacturer's protocol. Cell numbers or viability in the culture plate after the above compound treatments were determined using Promega's CellTiter96® AQueous One Solution Cell Proliferation Assay kits, according to the manufacturer's protocol and instructions. In brief, after removing 50 μl of culture media for glucose assay, cells were incubated with AQueous One solution (25 μl stock solution and 50 μl prewarmed PBS/per well) at 37° C. for 1 hour, and the absorbance of OD490 nm in each sample was determined by the Bio-Tek microplate reader. Cell viability in culture wells were determined by the subtraction of OD490 nm in cultured cells with the OD490 nm in plain culture media (without seeding of cells). Glucose production in the culture cells were obtained by normalizing the glucose concentration in culture media by cell viability in each well. At least 3 samples per each treatment were examined for the above analysis. Data are presented as Mean±SEM of those samples. Experiments were repeated at least twice.
The half maximal inhibitory concentration (IC50 values) of Compound #43 or metformin for the inhibition of glucose production were determined using the ED50 Plus v1.0 online software.

[2] = system: Lepr^db/db mice; assay: Glucose tolerance test in Lepr^db/db mice; format: in vivo, mouse
Procedure: Male Lepr^db/db mice at 38 days of age were intraperitoneally (ip) injected daily with physiological saline ([…]) containing 0.2% DMSO, Compound #C, Compound #50, Compound #68, and/or Compound #43 (25 μg selenium or sulfur equivalents of each compound per kilogram body weight, diluted in sterile physiological saline) for periods ranging from 43-90 days. Body weights of the above treated mice were recorded daily using a balance and any visible abnormal animal gross morphology and walking behavior were monitored daily. After the treatments, animals were fasted overnight and then subjected to blood glucose or HbA1c assays, glucose tolerance tests or tissue collections.
For comparative studies of any potential anti-diabetic effects of Compounds #43, #69 and #70, male Lepr^db/db mice at 41 days of age were intraperitoneally (ip) injected daily with physiological saline ([…]) containing 0.2% DMSO, Compound #43, Compound #69, or Compound #70 (25 μg selenium of each compound per kilogram body weight, diluted in sterile physiological saline). After the treatments for 43 days, animals were fasted overnight and then subjected to blood glucose and glucose tolerance tests. After daily treatments of these compounds for 90 days, sera from these animals were collected and then subjected to blood HbA1c assays.
Glucose tolerance tests were performed as described previously (Li et al, Int J Biol Sci 2008; 4:29-36). Briefly, overnight-fasted Lepr^db/db mice after saline or compound treatments were injected intraperitoneally with 2 grams/kg body weight of 20% D-glucose. Blood glucose levels at time 0 (immediately before the injection of glucose), 0.25, 0.5, 1 and 2 hours after injection of glucose were determined using a glucometer with a maximum glucose measurement capacity of 600 mg/dL. Because of this, blood glucose levels over 600 mg/dL were counted as 600 mg/dL in the data analysis.

[3] = system: Pdk1/Akt/Foxo1; assay: Western blot of Pdk1/Akt/Foxo1 signaling in livers of Lepr^db/db mice; format: in vivo, mouse; settings: 25 μg selenium/kg ip daily, 52 days (FIG. 12)
Procedure: Male Lepr^db/db mice (C57BL/6J strain, purchased from The Jackson Laboratory) at postnatal day 38 were intraperitoneally injected daily with physiological saline ([…]) containing 0.2% DMSO, Compound #43 (25 μg selenium or sulfur equivalent of each compound per kilogram body weight, diluted in sterile physiological saline) for 52 days. After the treatment, livers were collected and stored at −80° C.
Frozen liver tissues were minced in sterile ice-old PBS containing complete proteinase and phosphatase inhibitors (Thermo-Fisher Scientific, Waltham, Mass.) and subjected to homogenization using a tissue homogenizer (Thermo-Fisher Scientific, Waltham, Mass.). These tissue homogenates were diluted in Themo-Fisher's premade RIPA buffer (1 part homogenate/2 part of RIPA buffer) containing complete proteinase/phosphatase inhibitors to extract the proteins. Proteins in the homogenates were extracted in RIPA buffer at 4° C. overnight. These overnight-extracted protein lysates were centrifuged at 12000×g for 30 min at 4° C., and the protein levels in the supernatant of these tissue lysates were determined using the Pierce Micro-BCA protein assay kit (Thermo Scientific-Piece Biotechnology, Rockford, Ill.) according to the manufacturer's protocol.
One hundred micrograms of liver tissue proteins or five micrograms of total proteins from control- and compound(s)-treated HepG2 or AML-12 cells were subjected to SDS-PAGE gel separation and then transferred to PVDF membranes, as described previously (Reddy et al. 2008 Science). Membranes were blocked in a phosphate-buffered saline (PBS) containing 5% (w/v) of bovine serum albumin (Sigma, St. Louis, Mo.) and incubated with specific primary antibodies followed by the incubation with HRP-conjugated anti-mouse or anti-rabbit secondary antibodies (1:5000 dilution, Cell Signaling Inc.). All primary antibodies except Gapdh (Li-COR, Lincoln, Nebr.) were purchased from Cell Signaling Inc. Positive signals on the membrane blots were detected using the Amersham's enhanced chemiluminescence Western Blotting Prime Detection reagents (GE Healthcare Lifescience, Pittsburgh, Pa.). Images of these luminescence signals on the membrane blots were captured using the LI-COR Odyssey Fc Image system (Lincoln, Nebr.). The same membrane blot was stripped and re-blotted with another antibody as described in the GE WB ECL-prime-detection protocol (GE healthcare Lifescience, Pittsburgh, Pa.). Protein band densities in the Western blots were determined using the NIH ImageJ software and then normalized by Gapdh or Actb/ACTB level in each sample. Data are presented as mean±SEM of three samples per each group.

Compound: C[Se]C[C@H]1O[C@@H](n2cnc3c(N)ncnc32)C(OC(C)=O)C1OC(C)=O (stereo partly drawn) [Compound #43, Adenosine, 5′-Se-methyl-5′-selino-, 2′,3′-diacetate]
- IC50 ([1]; Rattus norvegicus, H4IIE, 24 h, read-out: IC50 (inhibition of glucose production)): 17.8 µM
- potency relative to metformin in inhibition of glucose production ([1]; cultured rat liver cells): at least 15 times
- effect on glucose production in H4IIE cells ([1]; serum-free, 24 hr (FIG. 2)): dose-dependent decrease in glucose production
- glucose tolerance (overall) ([2]; 25 μg selenium or sulfur/kg ip daily 2 months (FIG. 8B)): dramatically improves glucose tolerance
- glucose tolerance (overall) ([2]; 25 μg selenium/kg ip daily 43 days from day 38, glucose 2 g/kg (FIG. 8A)): can almost completely restore insulin action
- glucose tolerance (overall) ([2]; 25 μg selenium/kg ip daily 43 days from day 41 (FIG. 8C)): can dramatically improve glucose tolerance
- blood glucose level at 2 hr after glucose injection ([2]; FIG. 8A, 43 days treatment): almost completely back to pre-injection glucose levels
- blood glucose levels at 0.25, 0.5 and 1 hr after glucose injection ([2]; FIG. 8A, 43 days treatment): visibly lower than saline-, Compound #C- or #50-treated mice
- blood glucose level at 2 hr after glucose injection ([2]; FIG. 8B, 2 months treatment): significantly lower than Compound #68-treated littermates
- blood glucose level at 1 hour after glucose injection ([2]; FIG. 8C, 43 days treatment): significantly lower than saline-, Compound #69- or Compound #70-treated littermates
- blood glucose level at 2 hr after glucose injection ([2]; FIG. 8C, 43 days treatment): much lower than Saline-, Compound #69- or Compound #70-treated mice
- pAkt (Threonine 308) protein level in liver [3]: significantly elevated
- pFoxo1 (Serine 256) protein level in liver [3]: significantly elevated
- pPdk1 protein level in liver [3]: significantly elevated
- total Akt levels in liver [3]: no significant change
